From publication PMC7162838, “Production of multiple bacteriocins, including the novel bacteriocin gassericin M, by Lactobacillus gasseri LM19, a strain isolated from human milk” (Applied Microbiology and Biotechnology, 2020) come the findings set out here.

Like-named read-outs stand apart in the source and are kept apart here.

The test system of this assay is L. bulgaricus DPC6901. The experiment in a line: Well-diffusion assay of naturally produced and synthetic peptides. Format: cell-based, Lactobacillus delbrueckii subsp. bulgaricus. The settings on record: for antimicrobial activity of synthetic peptides: synthetic peptides resuspended in milli Q water at 1 mg/ml. (In general: A growth-free zone around the sample is the usual read-out of agar diffusion tests.)

Setting [1] is: fractions from HPLC fractionation I and II of L. gasseri LM19 cell extracts and supernatant, well-diffusion, Fig. 4a.

Take “MKVLNECQLQTVVGGKNWSVAKCGGTIGTNIAIGAWRGARAGSFFGQPVSVGAGALIGASAGAIGGSVQCVGWLAGGGR [Bact_1, bacteriocin peptide of L. gasseri LM19 cluster 1, identical to gassericin S peptide GasA]”: the “antimicrobial activity of synthetic peptides” value (well-diffusion, Fig. 4a) is “lower than that from fractions containing the Bact_1 mass”. On to “MALKTLEKHELRNVMGGNKWGNAVIGAATGATRGVSWCRGFGPWGMTACGLGGAAIGGYLGYKSN [GamX, class IIb bacteriocin peptide of L. gasseri LM19 cluster 3, purified from culture and synthesised]”, for which the “antimicrobial activity of HPLC fractions containing the peptide mass” value under setting [1] is listed as “low activity”. Regarding “MIEKVSKNELSRIYGGNNVNWGSVAGSCGKGAVMGIYFGNPILGCANGAATSLVLQTASGIYKNYQKKR [Bact_2, bacteriocin peptide of L. gasseri LM19 cluster 1, identical to gassericin S peptide GasX]”, the “antimicrobial activity of HPLC fractions containing the peptide mass” value is listed as “largest zones of inhibition”. For the setting “well-diffusion, Fig. 4a”, the “antimicrobial activity of synthetic peptides” value is listed as “highest activity”. “MKTLNEQELTQIVGGKGNKGINWANVRCASAVTIGALGGGLAGPGGMVGGFLLGSGACF [GamY, peptide of the novel two-component bacteriocin gassericin M]”: the “antimicrobial activity of HPLC fractions containing the peptide mass” value is given as “clear activity”. For the same sequence, the “antimicrobial activity of synthetic peptides” value (well-diffusion, Fig. 4a) is on record as “did not show activity”. “MRKINKEELVEITGGFNAAKCAVGTAGGAFSIARGSAAFGVPGMVIGGILGGAAGALASCK [GamM, peptide of the novel two-component bacteriocin gassericin M]”: the “antimicrobial activity of HPLC fractions containing the peptide mass” value was “low activity”. Further, the “antimicrobial activity of synthetic peptides” value (well-diffusion, Fig. 4a) is “notable”. As for “MKNFNTLSFETLANIVGGRNNWAANIGGVGGATVAGWALGNAVCGPACGFVGAHYVPIAWAGVTAATGGFGKIRK [GamA, class IIb bacteriocin peptide of L. gasseri LM19 cluster 3, purified from culture and synthesised]”, the “antimicrobial activity of HPLC fractions containing the peptide mass” value under setting [1] is listed as “largest zones of inhibition”. The “antimicrobial activity of synthetic peptides” value (well-diffusion, Fig. 4a) is “highest activity”.
